These results are taken from article PMC11945486, “TAS1R2/TAS1R3 Single-Nucleotide Polymorphisms Affect Sweet Taste Receptor Activation by Sweeteners: The SWEET Project” (Nutrients, 2025).

The target in the experiment is T1, human TAS1R2-WT/TAS1R3-F749S (Homo sapiens, UniProt Q7RTX0+Q8TE23, F749S).
T1 construct: expressed in transfected cells; host or cells: HEK293T stably expressing Gα16gust44
T1 sequence (Q8TE23 20-839): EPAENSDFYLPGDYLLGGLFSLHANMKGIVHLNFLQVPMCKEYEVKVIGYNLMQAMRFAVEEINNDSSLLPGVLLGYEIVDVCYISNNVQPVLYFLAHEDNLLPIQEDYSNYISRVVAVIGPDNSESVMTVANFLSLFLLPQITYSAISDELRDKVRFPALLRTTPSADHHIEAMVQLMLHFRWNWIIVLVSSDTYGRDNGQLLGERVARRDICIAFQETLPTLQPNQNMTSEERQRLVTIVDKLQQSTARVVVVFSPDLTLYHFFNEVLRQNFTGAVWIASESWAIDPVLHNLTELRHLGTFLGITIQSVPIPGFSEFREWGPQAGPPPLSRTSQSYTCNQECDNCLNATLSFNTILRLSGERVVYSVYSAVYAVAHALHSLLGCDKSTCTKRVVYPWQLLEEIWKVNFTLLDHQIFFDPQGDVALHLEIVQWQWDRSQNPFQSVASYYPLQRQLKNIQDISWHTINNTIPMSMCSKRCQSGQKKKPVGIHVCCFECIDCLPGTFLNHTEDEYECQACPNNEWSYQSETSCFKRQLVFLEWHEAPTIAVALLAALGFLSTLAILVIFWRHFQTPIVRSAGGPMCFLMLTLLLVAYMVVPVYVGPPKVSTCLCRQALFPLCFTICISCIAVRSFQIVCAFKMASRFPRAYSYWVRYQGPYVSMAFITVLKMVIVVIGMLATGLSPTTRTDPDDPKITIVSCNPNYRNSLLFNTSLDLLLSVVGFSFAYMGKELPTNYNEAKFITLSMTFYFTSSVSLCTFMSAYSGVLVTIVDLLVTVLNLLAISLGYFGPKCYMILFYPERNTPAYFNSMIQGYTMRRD
T1 sequence (Q7RTX0 21-852 F749S): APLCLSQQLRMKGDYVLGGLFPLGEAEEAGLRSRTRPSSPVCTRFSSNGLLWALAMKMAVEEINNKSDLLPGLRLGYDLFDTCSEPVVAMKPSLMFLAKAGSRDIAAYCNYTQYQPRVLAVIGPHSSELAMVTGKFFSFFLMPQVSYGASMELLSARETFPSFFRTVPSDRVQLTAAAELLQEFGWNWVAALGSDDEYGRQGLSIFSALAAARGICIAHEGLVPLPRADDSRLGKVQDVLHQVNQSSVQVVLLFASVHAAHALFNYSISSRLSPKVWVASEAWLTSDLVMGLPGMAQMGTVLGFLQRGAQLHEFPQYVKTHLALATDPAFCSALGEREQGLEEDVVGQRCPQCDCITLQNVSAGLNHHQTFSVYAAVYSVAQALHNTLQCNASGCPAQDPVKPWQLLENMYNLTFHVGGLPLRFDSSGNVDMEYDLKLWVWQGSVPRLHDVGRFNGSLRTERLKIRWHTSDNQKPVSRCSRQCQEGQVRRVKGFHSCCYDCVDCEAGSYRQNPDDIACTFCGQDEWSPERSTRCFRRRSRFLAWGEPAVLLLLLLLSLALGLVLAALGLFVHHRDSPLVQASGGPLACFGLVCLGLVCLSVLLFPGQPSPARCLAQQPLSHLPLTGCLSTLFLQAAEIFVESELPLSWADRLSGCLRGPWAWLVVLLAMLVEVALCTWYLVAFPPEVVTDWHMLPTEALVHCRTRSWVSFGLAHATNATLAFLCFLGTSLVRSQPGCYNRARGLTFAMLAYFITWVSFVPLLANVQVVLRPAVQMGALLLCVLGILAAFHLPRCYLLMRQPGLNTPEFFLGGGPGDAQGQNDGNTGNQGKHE
The experiment is described as follows: Calcium mobilisation assay, TAS1R2-WT with TAS1R3 variant F749S. Particulars: for Max ΔF/F0: maximal signal amplitude. The format is cell-based. An excerpt:
The coding sequences for TAS1R2 and TAS1R3 were commercially synthesised, and the human codon was optimised for expression in human cells. The coding sequences of human TAS1R2 and TAS1R3 were subcloned and inserted into the mammalian expression vectors pcDNA6/myc-HisA and pcDNA4/myc-HisA (Invitrogen; Thermo Fisher Scientific; Illkirch, France) between the EcoRI and NotI restriction sites, generating the plasmids pcDNA6-TAS1R2 and pcDNA4-TAS1R3, respectively. To increase protein expression in mammalian cells, an upstream start codon was used, which was a sequence called MAX, corresponding to the QBI SP163 element also described in pcDNA4-HisMax (Invitrogen; Thermo Fisher Scientific; Illkirch, France). To measure the expression level of the receptor by immunohistochemistry, we used the FLAG sequence ([…]) in the C-terminal position, which encodes the FLAG tag epitope. SNP variants of TAS1R2 and TAS1R3 were constructed based on […], respectively, using site-directed mutagenesis (Genewiz; Leipzig, Germany).
The HEK293T cells were kindly provided by Jay P. Slack (Givaudan Flavors Corporation; Cincinnati, OH, USA). HEK293T cells stably transfected with Gα16gust44 [43, 67] were seeded in poly-D-lysine-coated clear-bottom black 96-well plates (0.35 × 10^5 cells/well) in high-glucose DMEM supplemented with 2 mM GlutaMAX, 10% dialysed foetal bovine serum with penicillin/streptomycin and G418 (400 μg/mL) at 37 °C and 6.3% CO2 in a humidified atmosphere as previously reported. […] As a negative control, HEK293T cells were mock-transfected with the empty expression vector. After a further 24 h of incubation, the HEK293T cells were washed with C1 buffer (130 mM NaCl, 5 mM KCl, 10 mM HEPES pH 7.4 and 2 mM CaCl2). The 96-well plates containing the cells were then stimulated with sweet-tasting compounds. […] Different concentration ranges were tested depending on the sweet compound injected. The Ca^2+ changes were expressed as fractional changes in fluorescent light intensity: ΔF/F = (F − F0)/F0, where F was the fluorescent light intensity at each point, and F0 was the value of emitted fluorescent light prior to stimulus application. To calculate dose–response relationships, the changes in fluorescence upon stimulus application were averaged, mock-subtracted and baseline-corrected. The dose–response data obtained were adjusted using a 4-parameter logistic equation. The half-maximal effective concentrations (EC50 values) and maximal signal amplitudes were calculated using SigmaPlot software (version 15.0) (Systat Software; San Jose, CA, USA).
For in vitro calcium mobilisation assay performed on hTAS1R2-SNPs, hTAS1R3-SNPs and mTAS1R3-I60T, 6 to 7 concentrations were tested for each sweet compound, plus buffer alone. All concentration–receptor combinations were measured in duplicate, and each experiment was repeated at least 4 times (8 wells/concentration). Results were expressed for each concentration as ΔF/F mean ± SEM and represented as dose–response curves.
(In general: Calcium assays in cells follow changes in intracellular calcium, usually with a dye or a luminescent sensor.)

Where two headings read alike, the source gives them in different places. No end group written: not given here.

One may read the EC50 as the concentration giving half of the maximal effect. As for `CC1=CC(=O)NS(=O)(=O)O1` [Acesulfame K, acesulfame K], the “R1 = Variant EC50/WT EC50” value is reported as 0.7 and the “Max ΔF/F0” value is recorded as 0.04 ± 0.01. Further, the EC50 (read-out: EC50) was determined as 410 ± 242 µM.

As for `O=S(=O)(O)NC1CCCCC1` [Cyclamate, cyclamate], the EC50 (read-out: EC50) amounted to 3430 ± 1990 µM.

On to `C[C@H](CC[C@@H](O[C@@H]1O[C@H](CO[C@@H]2O[C@H](CO)[C@@H](O)[C@H](O)[C@H]2O)[C@@H](O)[C@H](O)[C@H]1O[C@@H]1O[C@H](CO)[C@@H](O)[C@H](O)[C@H]1O)C(C)(C)O)[C@H]1CC[C@@]2(C)[C@@H]3CC=C4[C@@H](CC[C@H](O[C@@H]5O[C@H](CO[C@@H]6O[C@H](CO)[C@@H](O)[C@H](O)[C@H]6O)[C@@H](O)[C@H](O)[C@H]5O)C4(C)C)[C@]3(C)[C@H](O)C[C@]12C` [Mogroside V, mogroside V], for which the “R1 = Variant EC50/WT EC50” value is on record as 2.1 and the “Max ΔF/F0” value stood at 0.47 ± 0.02. The EC50 (read-out: EC50) was determined as 65.5 ± 5.4 µM.

As for `COc1ccc(CCC(=O)c2c(O)cc(O[C@@H]3O[C@H](CO)[C@@H](O)[C@H](O)[C@H]3O[C@@H]3O[C@@H](C)[C@H](O)[C@@H](O)[C@H]3O)cc2O)cc1O` [NHDC, neohesperidin dihydrochalcone], the “R1 = Variant EC50/WT EC50” value is on record as 3.0 and the “Max ΔF/F0” value is reported as 0.29 ± 0.01. In addition, the EC50 (read-out: EC50) is 150 ± 19.6 µM.

On to `COC(=O)[C@H](Cc1ccccc1)NC(=O)[C@H](CC(=O)O)NCCC(C)(C)C` [Neotame], for which the “R1 = Variant EC50/WT EC50” value is 1.5 and the “Max ΔF/F0” value is on record as 0.22 ± 0.01. Moreover, the EC50 (read-out: EC50) turned out to be 1.82 ± 0.12 µM.

Turning to `C=C(C)[C@@H]1CC=C(/C=N/O)CC1` [Perillartine, perillartine], the “R1 = Variant EC50/WT EC50” value was found to be 0.9 and the “Max ΔF/F0” value stood at 1.90 ± 0.30. The EC50 (read-out: EC50) is 12.1 ± 6.1 µM.

In the case of `C=C1C[C@@]23CC[C@H]4[C@@](C)(CCC[C@@]4(C)C(=O)O[C@@H]4O[C@H](CO)[C@@H](O)[C@H](O[C@@H]5O[C@H](CO)[C@@H](O)[C@H](O)[C@H]5O)[C@H]4O[C@@H]4O[C@H](CO)[C@@H](O)[C@H](O)[C@H]4O)[C@@H]2CC[C@]1(O[C@@H]1O[C@H](CO)[C@@H](O)[C@H](O[C@@H]2O[C@H](CO)[C@@H](O)[C@H](O)[C@H]2O)[C@H]1O[C@@H]1O[C@H](CO)[C@@H](O)[C@H](O)[C@H]1O)C3` [Rebaudioside M, rebaudioside M], the “R1 = Variant EC50/WT EC50” value worked out at 1.8 and the “Max ΔF/F0” value came out at 0.54 ± 0.03. Further, the EC50 (read-out: EC50) turned out to be 71.8 ± 9.6 µM.

With `OC[C@H]1O[C@H](O[C@]2(CCl)O[C@H](CCl)[C@@H](O)[C@@H]2O)[C@H](O)[C@@H](O)[C@H]1Cl` [Sucralose], the “R1 = Variant EC50/WT EC50” value was 2.3 and the “Max ΔF/F0” value is given as 0.18 ± 0.01. For the same molecule, the EC50 (read-out: EC50) turned out to be 252 ± 36 µM.

For the molecule “brazzein (QDKCKKVYENYPVSKCQLANQCNYDCKLDKHARSGECFYDEKRNLQCICDYCEY; ends and bridges not checked; cysteine pairing not given here; UniProt P56552 1-54, looked up) [sweet-tasting protein obtained by recombinant production using the yeast Pichia pastoris]”, the “R1 = Variant EC50/WT EC50” value worked out at 1.9 and the “Max ΔF/F0” value was 0.65 ± 0.01. Besides, for the setting “brazzein”, the EC50 was 212.2 ± 8.6 µg/mL.

Regarding thaumatin, the “R1 = Variant EC50/WT EC50” value was 3.0 and the “Max ΔF/F0” value was 0.42 ± 0.03.

B1: thaumatin (protein)
chain: ATFEIVNRCSYTVWAAASKGDAALDAGGRQLNSGESWTINVEPGTKGGKIWARTDCYFDDSGSGICKTGDCGGLLRCKRFGRPPTTLAEFSLNQYGKDYIDISNIKGFNVPMDFSPTTRGCRGVRCAADIVGQCPAKLKAPGGGCNDACTVFQTSEYCCTTGKCGPTEYSRFFKRLCPDAFSYVLDKPTTVTCPGSSNYRVTFCPTA
modifications: Eight disulfides
notes: sweet-tasting plant protein, E957
Turning to B1, the EC50 (read-out: EC50) turned out to be 31.2 ± 3.5 µM.
